Measurements taken from paper PMC8068264 (2021).

How the values were obtained:
[1] = system: SA3-6A/B (DNA, aptamer) TGCGGAGGAAGGTTCGACCATCGTGCGGGTAGGTAGACC/GAACCTGGGGGAGTAGGTCTACCTACCCGCACGATGGTC; assay: UV melting, first-peak height; conditions: 150 mM NaCl, 5 mM MgCl2; 10 mM HEPES pH 7.4; 100 µM guanosine negative control; signal close to that of 5 µM adenosine
[2] = system: SA3-6A/B (DNA, aptamer) TGCGGAGGAAGGTTCGACCATCGTGCGGGTAGGTAGACC/GAACCTGGGGGAGTAGGTCTACCTACCCGCACGATGGTC; assay: UV melting at 260 nm; conditions: 150 mM NaCl, 5 mM MgCl2; 10 mM HEPES pH 7.4; 100 µM adenosine; 0.9 µM strands; first (aptachain) peak
[3] = system: SA5-5A/B (DNA, aptamer) CCTGCGGAGGAAGGTTGACCATCGTGCGGGTAGGTAGA/AACCTGGGGGAGTAGGTCTACCTACCCGCACGATGGTC; assay: UV melting at 260 nm; conditions: 150 mM NaCl, 5 mM MgCl2; 10 mM HEPES pH 7.4; 100 µM adenosine; 0.9 µM strands; first (aptachain) peak
[4] = system: SA5-6A/B (DNA, aptamer) CCTGCGGAGGAAGGTTCGACCATCGTGCGGGTAGGTAGA/GAACCTGGGGGAGTAGGTCTACCTACCCGCACGATGGTC; assay: UV melting at 260 nm; conditions: 150 mM NaCl, 5 mM MgCl2; 10 mM HEPES pH 7.4; 100 µM adenosine; 0.9 µM strands; first (aptachain) peak
[5] = system: SA5-8A/B (DNA, aptamer) CCTGCGGAGGAAGGTTCTCGACCATCGTGCGGGTAGGTAGA/GAGAACCTGGGGGAGTAGGTCTACCTACCCGCACGATGGTC; assay: UV melting at 260 nm; conditions: 150 mM NaCl, 5 mM MgCl2; 10 mM HEPES pH 7.4; 100 µM adenosine; 0.9 µM strands; first (aptachain) peak
[6] = system: Apta6 (DNA, aptamer) GAACCTGGGGGAGTATTGCGGAGGAAGGTTC; assay: UV melting at 260 nm; conditions: 150 mM NaCl, 5 mM MgCl2; 10 mM HEPES pH 7.4; 100 µM adenosine; 0.9 µM strand; single hairpin peak
[7] = system: SA3-5A/B (DNA, aptamer) TGCGGAGGAAGGTTGAGGACCATCGTGCGGGTAGGTAGACC/GAGAACCTGGGGGAGTAGGTCTACCTACCCGCACGATGGTC; assay: UV melting at 260 nm; conditions: 150 mM NaCl, 5 mM MgCl2; 10 mM HEPES pH 7.4; 100 µM adenosine; peak at 28 °C only with adenosine, absent without
[8] = system: SA3-6A/B (DNA, aptamer) TGCGGAGGAAGGTTCGACCATCGTGCGGGTAGGTAGACC/GAACCTGGGGGAGTAGGTCTACCTACCCGCACGATGGTC; assay: UV melting first-peak height, Langmuir fit; conditions: 150 mM NaCl, 5 mM MgCl2; 10 mM HEPES pH 7.4; 0.9 µM strands; peak normalized to dimer peak; apparent; per site

Row | Structure (SMILES) | binding [1] | ΔTm [2] [°C] | ΔTm [3] [°C] | ΔTm [4] [°C] | ΔTm [5] [°C] | ΔTm [6] [°C] | binding [7] | KD [8] [µM]
1 | Nc1nc2c(ncn2[C@@H]2O[C@H](CO)[C@@H](O)[C@H]2O)c(=O)[nH]1 | weak |  |  |  |  |  |  | 
2 | Nc1ncnc2c1ncn2[C@@H]1O[C@H](CO)[C@@H](O)[C@H]1O |  | 5.5 | 2.5 | 2.5 | 2 | < 1 | yes | 19 ± 2
